Results taken from patent publication US20240329056A1, “COMPONENT ASSAY FOR ALZHEIMER'S DISEASE IN A LIVING SUBJECT” (CASSAVA SCIENCES, INC., priority 2021, published 2024).

Key:
[1] = system: cerebrospinal fluid biomarkers of Alzheimer's disease pathology, neurodegeneration and neuroinflammation; assay: Phase 2a clinical trial, cerebrospinal fluid and plasma biomarkers; type: in vivo, human
Source text: A small Phase 2a clinical trial that utilized a contemplated prognostic method along with other methodologies was first reported in the fall of 2019. The results of that trial were thereafter reported at Clinical Trials on Alzheimer's Disease (CTAD), December 4-7th, 2019 in San Diego, CA, and were published as Wang et al., J Prev Alzheimers Dis published 7 Feb. 2020. The use of the assay disclosed herein was neither shown nor discussed in that article.
(§1) Briefly, the study included 13 mild-to-moderate Alzheimer's disease patients, age 50-85, Mini Mental State Exam≥16 and ≤24 with a cerebrospinal fluid total tau/Aβ42 ratio […]. A pharmaceutical composition containing 100 mg of simufilam (PTI-125) in an orally administered tablet were given to the patients twice daily for 28 consecutive days. The study was conducted at five sites in the U.S. under an Investigational New Drug (IND) application.
Consistent with the drug's mechanism of action and preclinical data, the simufilam (PTI-125) reduced cerebrospinal fluid biomarkers of Alzheimer's disease pathology, neurodegeneration and neuroinflammation from baseline to Day 28.
Total tau, neurogranin, and neurofilament light chain decreased by 20%, 32% and 22%, respectively. Phospho-tau (pT181) decreased 34%, evidence that the compound suppresses tau hyperphosphorylation induced by Aβ42's signaling through α7-nicotinic acetylcholine receptor. Cerebrospinal fluid biomarkers of neuroinflammation (YKL-40 and inflammatory cytokines) decreased by 5-14%. Biomarker effects were similar in plasma.
This increase is consistent with the compound's 1,000-fold reduction of Aβ42's femtomolar binding affinity to α7-nicotinic acetylcholine receptor.

filamin A = target: T1, filamin A (Homo sapiens, UniProt P21333); assay: Phase 2a trial, target engagement in lymphocytes: filamin A conformation; type: in vivo
T1 construct: endogenous in cells; host or cells: patients' lymphocytes
Procedure: as §1
(§2) Biomarker reductions were at least p 0.001 by paired “t” test. Target engagement was shown in lymphocytes by a shift in filamin A's conformation from aberrant to native: 93% was aberrant on Day 1 vs. 40% on Day 28.

[2] = target: T2, filamin A linkages with α7-nicotinic acetylcholine receptor (Homo sapiens, UniProt P21333); assay: Phase 2a trial, filamin A linkage with α7-nicotinic acetylcholine receptor; type: in vivo; settings: after 28 days of treatment
T2 construct: filamin A linkages with α7-nicotinic acetylcholine receptor and toll-like receptor 4; endogenous in cells; host or cells: patients' lymphocytes
Procedure: as §1, §2

[3] = target: T3, filamin A linkages with toll-like receptor 4 (Homo sapiens, UniProt P21333); assay: Phase 2a trial, filamin A linkage with toll-like receptor 4; type: in vivo; settings: after 28 days of treatment
T3 construct: filamin A linkages with α7-nicotinic acetylcholine receptor and toll-like receptor 4; endogenous in cells; host or cells: patients' lymphocytes
Procedure: as §1, §2

[4] = system: Aβ42 complexes with α7-nicotinic acetylcholine receptor; assay: Phase 2a trial, Aβ42 complexes with α7-nicotinic acetylcholine receptor; type: in vivo, human; settings: after 28 days of treatment
Procedure: as §1, §2

Aβ42 complexes with CD14 = assay: Phase 2a trial, Aβ42 complexes with CD14; type: in vivo, human; settings: after 28 days of treatment
Procedure: as §1, §2

[5] = Phase 2a trial, plasma pharmacokinetics; type: in vivo, human
Procedure: as §1

[6] = Phase 2a trial, safety and tolerability; type: in vivo, human; settings: all patients, 100 mg twice daily for 28 days
Procedure: as §1

[7] = system: about 90 kDa FLNA polypeptide fragment; assay: Phase 2a trial, about 90 kDa FLNA polypeptide fragment in plasma; type: in vivo, human; settings: group of 13 patients, P<0.01
Procedure: FIG. 13 is a graph showing the amounts in arbitrary units of the about 90 kDa FLNA polypeptide fragment found in the plasma of 13 AD patients in a Phase 2a clinical trial who were treated with a medicament twice daily for 28 days and had their blood plasma assayed on days 0, 14 and 28 for the presence and amount of the about 90 kDa FLNA polypeptide fragment.
as §1
An assay for the presence and amount of the about 90 kDa FLNA polypeptide fragment in the plasma of each patient was also separately determined on days 0, 14 and 28 of the trial. […] Those results are shown graphically in FIG. 13 and indicate that the treatment appeared to be effective and was in agreement with the more standard assays.

[8] = target: α7-nicotinic acetylcholine receptor (Homo sapiens, UniProt P36544); settings: cited from earlier work
[9] = target: FLNA association with toll-like receptor 4 (TLR4) (Homo sapiens, UniProt P21333); settings: Wang et al., J. Neurosci. 2012; cited from earlier work
cytokine release = settings: Wang et al., J. Neurosci. 2012; cited from earlier work
[10] = system: prefrontal cortex and hippocampus brain slices; assay: Ex vivo organotypic brain slice culture with Aβ42 exposure; type: cell-based; settings: rat brain slices, serum-deprived, 100 μM Aβ1-42
Procedure: We hypothesize that the 90-kDa pS^2152FLNA fragment is derived from degenerated and ruptured neurons in the brain.
Using two brain regions known to be vulnerable to AD damage, 200-μm sections of prefrontal cortex and hippocampus were prepared from 10-week-old rats. These brain slices were cultured as described previously (Wang et al., above) for 4 days to permit recovery of slice preparation damage. These slices were then serum-deprived and incubated with 100 μM Aβ1-42 (Aβ42).
The presence of the 90-kDa pS^2152-FLNA fragments and pS^2152-FLNA protein, as well as other biomarkers that reflect neuronal destruction, nitrated tau (nY^29-tau) and glial damage [truncated glial fibrillary acidic protein (GFAP)] in the culture medium were assessed by Western blotting. The specificity of Aβ42 was defined by Aβ421, an intrareversal peptide.
The 90-kDa pS^2152-FLNA fragment, but not full-length (280-kDa) pS^2152-FLNA protein, appears in the medium starting at 4 hours post-Aβ42 addition and steadily increases over time. […] In addition, full-length GFAP, followed by its truncated form, appears early following Aβ1-42 exposure.

[11] = cerebrospinal fluid, baseline to Day 28, 100 mg twice daily

T1 sequence (P21333 whole entry): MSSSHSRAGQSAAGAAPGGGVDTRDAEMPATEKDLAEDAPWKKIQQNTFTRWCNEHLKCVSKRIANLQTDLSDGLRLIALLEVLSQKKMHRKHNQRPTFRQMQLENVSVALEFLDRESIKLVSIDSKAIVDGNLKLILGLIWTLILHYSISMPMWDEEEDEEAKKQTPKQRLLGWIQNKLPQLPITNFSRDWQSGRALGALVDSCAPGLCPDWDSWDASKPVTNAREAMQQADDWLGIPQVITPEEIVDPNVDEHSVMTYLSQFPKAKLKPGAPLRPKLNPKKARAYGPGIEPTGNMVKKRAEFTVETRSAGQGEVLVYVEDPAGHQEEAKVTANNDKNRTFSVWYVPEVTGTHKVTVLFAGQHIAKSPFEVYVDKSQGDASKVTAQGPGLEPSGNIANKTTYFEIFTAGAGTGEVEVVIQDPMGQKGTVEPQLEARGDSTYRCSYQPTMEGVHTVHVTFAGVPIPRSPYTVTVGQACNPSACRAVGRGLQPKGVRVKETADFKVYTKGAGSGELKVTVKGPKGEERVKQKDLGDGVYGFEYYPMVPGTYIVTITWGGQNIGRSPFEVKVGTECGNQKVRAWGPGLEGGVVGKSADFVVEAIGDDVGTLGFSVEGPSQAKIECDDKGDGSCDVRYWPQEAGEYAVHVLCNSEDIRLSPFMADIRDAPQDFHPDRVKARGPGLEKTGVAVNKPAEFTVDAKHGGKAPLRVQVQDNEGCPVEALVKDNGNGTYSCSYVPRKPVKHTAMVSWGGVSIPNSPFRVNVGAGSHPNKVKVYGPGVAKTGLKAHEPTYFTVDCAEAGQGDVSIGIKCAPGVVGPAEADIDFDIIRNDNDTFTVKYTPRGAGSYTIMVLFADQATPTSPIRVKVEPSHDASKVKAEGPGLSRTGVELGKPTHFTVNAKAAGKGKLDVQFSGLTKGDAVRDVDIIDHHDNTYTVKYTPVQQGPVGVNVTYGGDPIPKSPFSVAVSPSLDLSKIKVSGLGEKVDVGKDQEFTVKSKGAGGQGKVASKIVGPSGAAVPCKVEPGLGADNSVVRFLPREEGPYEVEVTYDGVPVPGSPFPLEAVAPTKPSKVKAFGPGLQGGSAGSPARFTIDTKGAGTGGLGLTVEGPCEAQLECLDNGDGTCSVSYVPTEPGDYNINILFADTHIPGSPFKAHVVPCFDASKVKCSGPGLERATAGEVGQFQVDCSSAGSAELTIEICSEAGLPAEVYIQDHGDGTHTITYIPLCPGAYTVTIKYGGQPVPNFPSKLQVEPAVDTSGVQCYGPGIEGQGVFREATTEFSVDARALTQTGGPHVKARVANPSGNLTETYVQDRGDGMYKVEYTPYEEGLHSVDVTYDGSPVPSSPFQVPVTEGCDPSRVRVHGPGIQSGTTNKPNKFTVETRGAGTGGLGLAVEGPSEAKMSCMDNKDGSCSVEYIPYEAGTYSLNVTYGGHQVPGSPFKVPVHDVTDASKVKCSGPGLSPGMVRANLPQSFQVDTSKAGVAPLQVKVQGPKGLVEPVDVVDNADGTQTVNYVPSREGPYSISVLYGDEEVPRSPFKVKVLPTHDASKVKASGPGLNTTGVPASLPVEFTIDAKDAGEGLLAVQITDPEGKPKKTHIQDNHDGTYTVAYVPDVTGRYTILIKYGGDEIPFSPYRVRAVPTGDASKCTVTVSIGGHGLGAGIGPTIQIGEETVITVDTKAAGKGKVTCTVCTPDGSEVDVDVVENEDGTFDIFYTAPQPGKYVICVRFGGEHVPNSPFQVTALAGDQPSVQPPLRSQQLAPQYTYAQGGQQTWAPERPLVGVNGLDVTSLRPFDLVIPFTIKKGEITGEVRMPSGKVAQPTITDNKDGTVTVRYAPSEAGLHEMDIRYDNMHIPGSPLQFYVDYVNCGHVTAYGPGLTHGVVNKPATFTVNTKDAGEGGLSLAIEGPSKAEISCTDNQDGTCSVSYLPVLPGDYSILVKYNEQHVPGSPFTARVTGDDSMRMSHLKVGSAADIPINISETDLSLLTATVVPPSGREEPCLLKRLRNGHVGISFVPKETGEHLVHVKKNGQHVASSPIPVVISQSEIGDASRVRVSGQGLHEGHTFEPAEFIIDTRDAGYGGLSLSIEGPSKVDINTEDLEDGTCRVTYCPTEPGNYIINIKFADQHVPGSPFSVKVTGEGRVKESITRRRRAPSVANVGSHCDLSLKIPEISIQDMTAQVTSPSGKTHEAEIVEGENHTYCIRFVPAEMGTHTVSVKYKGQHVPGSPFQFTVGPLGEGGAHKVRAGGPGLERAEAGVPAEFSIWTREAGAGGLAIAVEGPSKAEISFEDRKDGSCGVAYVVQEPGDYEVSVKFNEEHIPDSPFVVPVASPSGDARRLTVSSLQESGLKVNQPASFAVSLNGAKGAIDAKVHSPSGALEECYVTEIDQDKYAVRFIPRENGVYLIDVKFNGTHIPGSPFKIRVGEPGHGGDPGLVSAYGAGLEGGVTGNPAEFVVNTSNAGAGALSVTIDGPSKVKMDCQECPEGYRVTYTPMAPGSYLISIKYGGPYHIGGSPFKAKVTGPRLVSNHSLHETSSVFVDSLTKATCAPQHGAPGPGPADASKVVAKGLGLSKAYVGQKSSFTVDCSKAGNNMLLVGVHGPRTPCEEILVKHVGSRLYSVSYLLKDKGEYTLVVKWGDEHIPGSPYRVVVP
α7-nicotinic acetylcholine receptor, sequence (P36544 23-502): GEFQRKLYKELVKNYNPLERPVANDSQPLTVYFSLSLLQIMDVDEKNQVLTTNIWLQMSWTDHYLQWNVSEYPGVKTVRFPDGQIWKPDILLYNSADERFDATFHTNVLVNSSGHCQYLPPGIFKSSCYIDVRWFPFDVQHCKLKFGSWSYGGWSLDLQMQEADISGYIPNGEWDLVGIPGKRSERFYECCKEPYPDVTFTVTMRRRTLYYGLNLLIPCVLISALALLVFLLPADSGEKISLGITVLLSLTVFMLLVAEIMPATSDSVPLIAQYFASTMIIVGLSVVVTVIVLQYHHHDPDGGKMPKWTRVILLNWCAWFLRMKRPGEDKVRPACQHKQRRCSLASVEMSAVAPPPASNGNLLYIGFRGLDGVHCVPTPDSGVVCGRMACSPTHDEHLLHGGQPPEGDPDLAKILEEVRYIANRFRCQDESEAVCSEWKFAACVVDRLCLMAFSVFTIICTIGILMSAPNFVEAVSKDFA

Molecule: CN1CCC2(CC1)NCC(=O)N2Cc1ccccc1 [simufilam]
- Biomarker response ([1]; 13 mild-to-moderate AD patients, 100 mg oral tablet twice daily for 28 days, baseline to Day 28): All patients showed a biomarker response
- Aβ42 change ([1]; baseline to Day 28, 100 mg twice daily): increased slightly
- Cerebrospinal fluid biomarkers of neuroinflammation (YKL-40 and inflammatory cytokines) decrease [1, 11]: 5-14%
- Neurofilament light chain decrease [1, 11]: 22%
- Neurogranin decrease [1, 11]: 32%
- Phospho-tau (pT181) decrease [1, 11]: 34%
- Total tau decrease [1, 11]: 20%
- Biomarker effects in plasma ([1]; plasma compared with cerebrospinal fluid): similar
- Aberrant filamin A conformation (filamin A; Day 1): 93%
- Aberrant filamin A conformation (filamin A; Day 28): 40%
- Filamin A linkages with α7-nicotinic acetylcholine receptor [2]: significantly reduced
- Filamin A linkages with toll-like receptor 4 [3]: significantly reduced
- Aβ42 complexes with α7-nicotinic acetylcholine receptor [4]: significantly reduced
- Aβ42 complexes with CD14 (Aβ42 complexes with CD14): significantly reduced
- Drug accumulation ([5]; Day 28 vs. Day 1): approximately 30%
- half-life ([5]; human, plasma, AD patients, 100 mg oral twice daily): 270 min
- Safety and tolerability [6]: safe and well-tolerated
- Amount of the 90 kDa FLNA polypeptide fragment in the plasma ([7]; 14 days into the trial): decrease
- Amount of the 90 kDa FLNA polypeptide fragment in the plasma ([7]; 28 days into the trial): decrease
- Reduction of Aβ42's femtomolar binding affinity to α7-nicotinic acetylcholine receptor [8]: 1,000 fold
- FLNA association with toll-like receptor 4 (TLR4) [9]: reducing
- Cytokine release (cytokine release): preventing

Molecule: Aβ42: amyloid-beta peptide generated by cleavage of amyloid precursor protein; used to induce AD-like damage in brain slices
- Time of first appearance of 90-kDa pS2152-FLNA fragment in the medium post-Aβ42 addition [10]: 4 hours
